Results on three compounds are retold here after ChEMBL document CHEMBL4152181, “Resolvins as proresolving inflammatory mediators in cardiovascular disease” (Eur J Med Chem, 2018).

The structures appear in SMILES notation.

A short description of this data set: Half life in air at 10 to 20 ug by HPLC analysis. The data set is classed as physicochemical.

The compound `CC[C@@H](O)/C=C/C=C\C/C=C\C/C=C\C=C\[C@@H](O)CCCC(=O)O` gave a half-life of 1.5 h.

Compound `CC[C@@H](O)/C=C/C=C\C[C@H]1C[C@H]1C/C=C\C=C\[C@@H](O)CCCC(=O)O` had a half-life of 35 h.

As for `CC[C@@H](O)/C=C/C=C\C[C@@H]1C[C@@H]1C/C=C\C=C\[C@@H](O)CCCC(=O)O`, the half-life is 35 h.
